The source of these data is US20050239051A1, “Use of isogenic human cancer cells for high-throughput screening and drug discovery” (The Johns Hopkins University, priority 2001, published 2005).

The test system of one assay is mutant-RAS cell line. Put plainly: Growth inhibition assay with parental non-GFP cell lines plated separately, PicoGreen (FIG. 6). Format: cell-based, human. The settings on record: range of concentrations, five days. The method, then:
FIG. 6. Structure/activity ratios (SAR's) of compounds with structural homology to TPT. Growth inhibition assays were performed using parental (non-GFP modified) cell lines. Cells were plated separately at low density in 96 well plates and exposed to a range of test drug concentrations for five days. Cells were then lysed in H2O, and lysates assayed for relative cell number using the dsDNA-binding dye (PicoGreen).
Secondary screens on primary screen hits were performed as above except that a drug concentration range was used, typically extending from 30 ng/ml to 4 μg/ml. […] Assays using non-GFP modified cell lines were performed using cells plated separately rather than co-cultured. Plates were harvested each day for assessment of cell number using either an MTT assay or using the DNA-binding dye PicoGreen (Molecular Probes, Eugene, Oreg.). MTT assays were performed according to the manufacturers instructions (Trevigen, Gaithersburg, Md.). PicoGreen assays were performed by lysing cells in 96-well plates in 200 μl H2O, triturating and then transferring a 10 μl aliquot from each well to […] of PigoGreen solution (# P-7581) diluted to 0.5% vol/vol in Tris-EDTA (TE) buffer.

Assay [1] relates to DLD-1 cells (mutant c-Ki-Ras). Put plainly: Co-culture fluorescence growth inhibition screen, DLD-1 cells (BFP). Format: cell-based, human. The source says: (§1) FIG. 1. Schematic of drug screening format using co-cultured isogenic cells modified with spectrally distinct green fluorescent protein (GFP) variants. DLD-1 cells, harbouring a mutant c-Ki-RAS allele plus a wild-type (wt) c-Ki-RAS allele, were modified to stably express a GFP variant that is excited at 530 nm (YFP). An isogenic clone (KO) in which only the mutant c-Ki-RAS allele has been deleted (Adegboyega et al., Arch. Pathol. Lab. Med., 121:1063-68, 1997) was modified to express a GFP variant that is excited at 390 nm (BFP). These cells were mixed and plated at low density in 96-well plates. […] Plates were assayed every day for six days using a fluorescence plate reader to obtain growth curves for each cell line in every well of the plate.
(§2) FIG. 5. […] Growth curves were obtained from fluorescence at 390ex/508em (DLD-1) and 530ex/590em (KO). […]
(§3) Fluorescent cell lines were harvested by trypsinization and resuspended together as a mixture containing 22,000 cells/ml (DLD-1) and 18,000 cells/ml (KO) in DMEM media supplemented with 10% FCS (HyClone, Logan, Utah). […] Each well of column 1 contained […] of the growth medium without cells as a control for computing background fluorescence. […] Fluorometry data from each day's read were exported to a custom program (Drugmobile) for plotting the growth curves of each cell line in each well of the 96-well plate. […]

For assay [2], the system named is KO cells (DKS-8, mutant c-Ki-Ras allele deleted). Put plainly: Co-culture fluorescence growth inhibition screen, KO cells (YFP). Format: cell-based, human. The note with it: concentration and time course experiments, co-cultured cells (FIG. 5).
From the text: as §1, §2, §3

A further assay deals with p38 (Homo sapiens, UniProt Q16539). Put plainly: In vitro kinase assay, p38. The settings on record: in vitro kinase assays (data not shown). Format: biochemical. The source says: (§4) No anti-proliferative activity has previously been described for TPT. Tetrazole compounds such as TPT are commonly used as histological reagents that are reduced by cellular dehydrogenases in viable cells to a coloured formazan dye (Adegboyega et al., Arch. Pathol. Lab. Med., 121:1063-68, 1997, Otero et al., Cytotechnology, 6:137-42, 1991). However, no obvious staining of cells was observed using TPT at the concentrations used in the present assays. […] A previously identified inhibitor of p38 mitogen activated kinase (SB203580) (Cuenda et al., FEBS Lett., 364:229-33, 1995, Liverton et al., J. Med. Chem., 42:2180-90, 1999) was also noted to be structurally similar to TPT (FIG. 6). […] It is therefore unclear whether kinases represent cellular targets for TPT.

A further assay deals with c-Raf-1 (Homo sapiens, UniProt P04049). Put plainly: In vitro kinase assay, c-Raf-1. The settings on record: in vitro kinase assays (data not shown). The format is biochemical.
From the text: as §4

Another assay relates to c-Jun kinases. Put plainly: In vitro kinase assay, c-Jun kinases. The format is biochemical. The settings on record: in vitro kinase assays (data not shown).
From the text: as §4

For assay [3], the system named is downstream components of the RAS pathway. The note with it: previously shown (Cardenas 1998; Campbell 1994); cited from earlier work.

The structures appear in SMILES notation.

Sequence of p38 (Q16539 whole entry): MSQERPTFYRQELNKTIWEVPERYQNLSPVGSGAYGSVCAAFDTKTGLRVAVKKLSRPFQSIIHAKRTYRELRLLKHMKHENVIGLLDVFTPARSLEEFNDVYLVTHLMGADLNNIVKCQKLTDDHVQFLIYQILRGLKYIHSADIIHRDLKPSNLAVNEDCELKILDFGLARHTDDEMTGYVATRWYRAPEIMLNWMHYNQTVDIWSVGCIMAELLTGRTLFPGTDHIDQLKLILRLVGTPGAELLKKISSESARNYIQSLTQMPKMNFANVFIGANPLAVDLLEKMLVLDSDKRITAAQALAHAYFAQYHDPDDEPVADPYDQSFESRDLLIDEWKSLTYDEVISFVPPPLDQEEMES
Sequence of c-Raf-1 (P04049 whole entry): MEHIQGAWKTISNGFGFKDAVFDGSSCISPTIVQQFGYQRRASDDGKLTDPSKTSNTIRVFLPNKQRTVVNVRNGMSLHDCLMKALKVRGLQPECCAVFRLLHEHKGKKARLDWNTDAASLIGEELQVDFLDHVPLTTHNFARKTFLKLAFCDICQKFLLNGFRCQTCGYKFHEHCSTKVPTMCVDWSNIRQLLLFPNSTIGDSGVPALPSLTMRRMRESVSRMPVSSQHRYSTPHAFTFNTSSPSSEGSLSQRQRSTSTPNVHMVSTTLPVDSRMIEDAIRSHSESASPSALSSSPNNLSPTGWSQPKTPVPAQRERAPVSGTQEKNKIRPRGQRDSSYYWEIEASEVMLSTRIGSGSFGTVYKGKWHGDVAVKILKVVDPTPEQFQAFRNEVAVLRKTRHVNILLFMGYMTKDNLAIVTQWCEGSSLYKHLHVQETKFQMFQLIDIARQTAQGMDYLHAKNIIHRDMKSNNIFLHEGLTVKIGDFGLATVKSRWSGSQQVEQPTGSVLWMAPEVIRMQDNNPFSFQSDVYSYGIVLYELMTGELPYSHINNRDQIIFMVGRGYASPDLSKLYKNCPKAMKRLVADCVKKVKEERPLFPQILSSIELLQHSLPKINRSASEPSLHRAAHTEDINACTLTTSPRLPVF

For `C[S+]([O-])c1ccc(-c2nc(-c3ccncc3)c(-c3ccc(F)cc3)[nH]2)cc1` (centres unmarked) [SB203580], the “selectivity towards the mutant RAS-containing line” value with mutant-RAS cell line was “failed to show selectivity”.

Regarding `c1ccc(-c2nn(-c3ccccc3)[n+](-c3ccccc3)n2)cc1` [TPT, Triphenyltetrazolium], the “selectivity for inhibiting the growth of the mutant c-Ki-RAS cell line (DLD-1)” value in assay [1] (DLD-1 versus KO) was about 6 fold. Moreover, the “IC50 on DLD-1” value in assay [1] (concentration and time course experiments, co-cultured cells (FIG. 5)) was about 2 µg/mL. In assay [2], the “IC50 on KO” value is about 12 µg/mL. Also, the “inhibition of p38” value on p38 is on record as “little or no reproducible inhibition”. In addition, the “inhibition of c-Raf-1” value against c-Raf-1 is “little or no reproducible inhibition”. Also, in the assay on c-Jun kinases, the “inhibition of c-Jun kinases” value was “little or no reproducible inhibition”.

On to `C[C@@]12c3ccc4c(c3C(=O)c3occ(c31)C(=O)C[C@H]2O)CCC4=O` [demethoxyviridin], for which the “inhibition of downstream components of the RAS pathway” value in assay [3] is recorded as “inhibit downstream components of the RAS pathway”.
